15 sequences from US20120328735A1, “PROCESS FOR PREPARING CASEIN-DERIVED PEPTIDES BY FERMENTATION OF LACTIC ACID BACTERIA” (priority 2011, published 2012) can be followed below.

Ends that are not written are not given here.

The subject of test [1] is scopolamine-induced amnesia. The test is described as follows: Y-shaped maze test, spontaneous alternation behavior, scopolamine-induced amnesia. In kind it is in vivo. To be noted: male ddY mice, scopolamine 1 mg/kg s.c. As for the experimental part: Male ddY mice (about 7 weeks old) were used (n=15 to 75), and provided with food and water ad libitum. Asn-Ile-Pro-Pro-Leu-Thr-Gln-Thr-Pro-Val-Val-Val-Pro-Pro-Phe-Leu-Gln-Pro-Glu (SEQ ID NO: 1) was used as a test substance in amounts of 0.05 nmol/kg body weight (0.1 μg/kg body weight), 0.5 nmol/kg body weight (1 μg/kg body weight), 1.5 nmol/kg body weight (3 μg/kg body weight), 5 nmol/kg body weight (10 μg/kg body weight), 50 nmol/kg body weight (100 μg/kg body weight), and 500 nmol/kg body weight (1,000 μg/kg body weight). The test substance was administered as a single dose orally to mice 60 minutes before performing a Y-shaped maze test for evaluating spontaneous alternation behavior. Thirty minutes before performing the Y-shaped maze test, scopolamine was subcutaneously administered in an amount of 1 mg/kg body weight into the back to induce brain dysfunction (memory disorder and/or cognition disorder) in mice. In the Y-shaped maze test, as an experiment device, a Y-shaped maze was used in which the length for each arm was 40 cm; the wall height was 12 cm; the floor width was 3 cm; the upper part width was 10 cm; and three arms were connected to each other at an angle of 120°. Each mouse was placed in the end of any of the arms of the Y-shaped maze and allowed to explore freely in the maze over 8 minutes, and the sequence of the arms to which the mouse moved was recorded. The number of movements of the mouse to the arms within the measurement time was counted and used as the total number of entries; in the sequence, the combination in which three different arms were selected in succession (for example, with the three arms respectively called A, B, and C, if the sequence of the aims entered is ABCBACACB, the count is 4 inclusive of overlapping) was investigated, and the count number was used as the number of spontaneous alternation behaviors. The change in spontaneous alternation behavior (%) was calculated by dividing the number of spontaneous alternation behaviors by a number obtained by subtracting 2 from the total number of entries, and multiplying the resultant number by 100, and the percentage was used as an indicator of the spontaneous alternation behavior. […] The measured values were expressed as mean±standard error for each group. The significance of difference between the control group and the scopolamine control group was tested by Student's t-test. The significance of difference between the scopolamine control group and the peptide-administered group was tested by Dunnett's multiple comparison test after one-way analysis of variance.
Male ddY mice (about 7 weeks old) were used (n=15 to 45), and provided with food and water ad libitum. As test substances, Asn-Ile-Pro-Pro-Leu-Thr-Gln-Thr-Pro-Val-Val-Val-Pro-Pro-Phe-Leu-Gln-Pro-Glu (SEQ ID NO: 1) at 50 nmol/kg body weight (100 μg/kg body weight), or […]([…]; SEQ ID NO: 2) at 50 nmol/kg body weight (120 μg/kg body weight), or Ile-Pro-Pro-Leu-Thr-Gln-Thr-Pro-Val-Val-Val-Pro-Pro-Phe-Leu-Gln-Pro-Glu (IPPLTQTPVVVPPFLQPE; SEQ ID NO: 7) at 50 nmol/kg body weight (100 μg/kg body weight), or Asn-Ile-Pro-Pro-Leu-Thr-Gln-Thr-Pro-Val-Val-Val-Pro-Pro-Phe-Leu-Gln-Pro (NIPPLTQTPVVVPPFLQP; SEQ ID NO: 8) at 50 nmol/kg body weight (100 μg/kg body weight), or Thr-Gln-Thr-Pro-Val-Val-Val-Pro-Pro-Phe (TQTPVVVPPF; SEQ ID NO: 9) at 50 nmol/kg body weight (50 μg/kg body weight) were used. The percentage of change in the spontaneous alternation behavior was determined as described in Example 4, and used as an indicator of the spontaneous alternation behavior. The measured values were expressed as mean±standard error for each group. The significance of difference between the control group and the scopolamine control group was tested by Student's t-test. The significance of difference between the scopolamine control group and each peptide-administered group was tested by Dunnett's multiple comparison test after one-way analysis of variance. […]

The subject of a further test is memory retention. Nature of the test: novel object recognition test for evaluating memory retention. In kind it is in vivo. To be noted: male ddY mice; single oral dose 500 nmol/kg body weight (1,000 μg/kg) 60 min before training trial; retention trial 48 hours later; FIG. 5. The protocol: Male ddY mice (about 7 weeks old) were used (n=14 to 15), and provided with food and water ad libitum. As a test substance, 500 nmol/kg body weight (1,000 μg/kg body weight) of Asn-Ile-Pro-Pro-Leu-Thr-Gln-Thr-Pro-Val-Val-Val-Pro-Pro-Phe-Leu-Gln-Pro-Glu (SEQ ID NO: 1) was used. The test substance was administered as a single dose orally to mice 60 minutes before performing a novel object recognition test for evaluating memory retention. In the novel object recognition test, a 30×30×30 cm box was used as an experiment device. As a conditioning operation, a mouse was placed in an experiment device in which a floorcloth was laid for 5 minutes, and allowed to explore freely in the device. A training trial was performed the day following the conditioning operation. […] Sixty minutes after orally administering the test substance or water, a mouse was placed in the experiment device for 5 minutes, and the time (second) was measured during which the mouse explored by approaching each object to be within 1 cm therefrom. […] (However, the state in which a mouse rides on an object is excluded.) The percentages of the times were determined during which two objects were explored in each of the training trial and the retention trial. The percentage (%) of the exploration time for each object was expressed as mean±standard error for each of the groups. […]

Setting [2] is: single oral dose 500 nmol/kg body weight, vs scopolamine control group, FIG. 4, FIG. 7, FIG. 9.
Where [3] appears, read: single oral dose 50 nmol/kg body weight, vs scopolamine control group, FIG. 3, FIG. 6.

For SWMHQPHQPLPPTVMFPPQSVL [SEQ ID NO: 3], the “amnesia-preventing action (change in spontaneous alternation behavior)” value in test [1] (single oral dose 150 nmol/kg body weight to 500 nmol/kg body weight (380 to 1,280 μg/kg), FIG. 8) was “shown to have an amnesia-preventing action”; in test [1] (setting [2]), “shown to have amnesia-preventing actions”.

Turning to NIPPLTQTPVVVPPFLQP [SEQ ID NO: 8], the “amnesia-preventing action (change in spontaneous alternation behavior)” value in test [1] (setting [3]) is reported as “significant difference compared to the scopolamine control group could not be confirmed”.

With NIPPLTQTPVVVPPFLQPE [SEQ ID NO: 1], the “amnesia-preventing action (change in spontaneous alternation behavior)” value in test [1] (setting [3]) is given as “shown to have amnesia-preventing actions”; in test [1] (setting [2]) it was “shown to have amnesia-preventing actions”; in test [1] (single oral dose 60 min before test, 0.05 nmol/kg body weight to 500 nmol/kg body weight (0.1 to 1,000 μg/kg), FIG. 2), “shown to have an amnesia-preventing action”. Further, in the test on memory retention, the “memory-enhancing action (percentage of exploration time for novel object)” value is “shown to have a memory-enhancing action”.

For the sequence VVVPPFLQPE [SEQ ID NO: 15], the “amnesia-preventing action (change in spontaneous alternation behavior)” value in test [1] (setting [2]) is recorded as “shown to have amnesia-preventing actions”.

Take TQTPVVVPPFLQPE [SEQ ID NO: 11]: the “amnesia-preventing action (change in spontaneous alternation behavior)” value in test [1] (setting [3]) was “shown to have an amnesia-preventing action”.

Consider LTQTPVVVPPFLQPE [SEQ ID NO: 13], for which the “amnesia-preventing action (change in spontaneous alternation behavior)” value in test [1] (setting [2]) is listed as “shown to have amnesia-preventing actions”.

For SWMHQPHQPLPPTVMFPPQ [SEQ ID NO: 17], the “amnesia-preventing action (change in spontaneous alternation behavior)” value in test [1] (setting [2]) was “significant difference could not be confirmed”.

In the case of PLTQTPVVVPPFLQPE [SEQ ID NO: 12], the “amnesia-preventing action (change in spontaneous alternation behavior)” value in test [1] (setting [2]) is “shown to have amnesia-preventing actions”.

Consider IPPLTQTPVVVPPFLQPE [SEQ ID NO: 7], for which the “amnesia-preventing action (change in spontaneous alternation behavior)” value in test [1] (setting [3]) was “shown to have amnesia-preventing actions”.

On to PVVVPPFLQPE [SEQ ID NO: 14], for which the “amnesia-preventing action (change in spontaneous alternation behavior)” value in test [1] (setting [2]) was “shown to have amnesia-preventing actions”.

PPLTQTPVVVPPFLQPE [SEQ ID NO: 10]: the “amnesia-preventing action (change in spontaneous alternation behavior)” value in test [1] (setting [2]) was “shown to have amnesia-preventing actions”.

Regarding MHQPHQPLPPTVMFPPQSVL [SEQ ID NO: 16], the “amnesia-preventing action (change in spontaneous alternation behavior)” value in test [1] (setting [2]) is recorded as “shown to have amnesia-preventing actions”.

In the case of LQSWMHQPHQPLPPTVMFPPQSVL [SEQ ID NO: 4], the “amnesia-preventing action (change in spontaneous alternation behavior)” value in test [1] (setting [2]) is recorded as “shown to have amnesia-preventing actions”.

For TQTPVVVPPF [SEQ ID NO: 9], in test [1] (setting [3]), the “amnesia-preventing action (change in spontaneous alternation behavior)” value is on record as “significant difference compared to the scopolamine control group could not be confirmed”.

Take NIPPLTQTPVVVPPFLQPEVM [SEQ ID NO: 2]: the “amnesia-preventing action (change in spontaneous alternation behavior)” value in test [1] (setting [3]) is “shown to have amnesia-preventing actions”.
